# Assay results taken from patent US11083773B2, “Peptides that block leukocyte recruitment and methods of use” (ARCH CANCER THERAPEUTICS, INC., priority 2014, dated 2021).
# Experiments:
# [1] = tested on: 70 W human melanoma cells; experiment: Tail vein injection of 70 W human melanoma cells expressing luciferase, lung tumor burden; type: in vivo, mice
# Procedure: FIG. 13A-13F show the tumor burden in lung tissue from mice injected via tail vein with 1×10^6 70 W human melanoma cells expressing luciferase, with or without prior injection of 50 μM or 500 μM LSALT peptide (13A-13C) and representative images of lungs with visible melanotic lung […] in mice injected via tail vein with 1×10^6 70 W human melanoma cells expressing luciferase, with or without prior injection of 50 μM or 500 μM LSALT peptide mice (13D-13F).
# FIG. 14A-14D show Xenogen images of lungs from mice injected via tail vein with human melanoma cells expressing luciferase with (14B) and without (14A) pretreatment with LSALT; and Xenogen images of lungs from mice injected treated as described for FIGS. 13A and 13B, and in the presence (14D) and absence (14C) of neutrophil depletion using anti-Ly6G/GRI antibody.
# In one treatment study, […] melanoma cells expressing luciferase were injected via tail vein with or without prior injection of 50 μM or 500 μM LSALT peptide.
# Animals were treated as above in the absence or presence of Neutrophil depletion using Anti-Ly6G/GR1, and the animals were imaged with the Xenogen light system.
# [2] = tested on: 143B human osteosarcoma cells; experiment: Tail vein injection of 143B human osteosarcoma cells, mouse model for metastasis; type: in vivo
# Procedure: 5×10^5 143B human osteosarcoma cells stably expressing luciferase were injected into the tail vein of animals 5 mins after IV delivery of PBS or LSALT-peptide. Animals were sacrificed after 3 weeks. Lungs were then harvested, fixed in formalin, and embedded in paraffin. […] Metastatic lesions were visualized by staining human 143B osteosarcoma cells with anti-human nucleolin (brown). […] PBS n=4. LSALT-peptide n=6.
# In a similar model, 5×10^5 143B human osteosarcoma cells stably expressing luciferase were injected into the tail vein of animals 5 mins after IV delivery of PBS or LSALT-peptide. Animals were imaged weekly using bioluminescence imaging (Xenogen, IVIS 200).
# [3] = tested on: BALB/c mice; experiment: LPS intoxication model of sepsis; type: in vivo; conditions: versus control-bacteriophage/LPS and LPS only
# Text: An intoxication model of sepsis was used to assess peptide efficacy on sepsis. In intoxication models, mice are challenged with a noninfectious, proinflammatory compound, such as LPS or killed bacteria. In the present study, protocols were used that followed Andonegui G, et al., J Clin Invest. 2009 July; 119(7):1921-30; and Yipp B G, et al. J Immunol. 2002 May 1; 168(9):4650-8.
# Briefly, purified LPS isolated from E. Coli was used to initiate endotoxemia response in BALB/c mice 6-8 weeks old. Mice were injected with LSALT bacteriophage that contain lethal amounts of LPS endotoxin.
# When the animals started to show signs of distress they were sacrificed by euthanasia. All mice treated in this group (5 out of 5) had to be sacrificed due to a septic response.
# [4] = tested on: 4T1 murine breast cancer cells; experiment: Intrasplenic injection of 4T1 murine breast cancer cells, liver metastasis; type: in vivo, mouse; conditions: 4-week post injection; control phage or LSALT expressing phage
# [5] = prior injection of 50 μM or 500 μM, 4 weeks post-injection
sequence,measurement,setting,value
LSALTPSPSWLKYKAL (listed as Homo sapiens) [LSALT peptide],"tumor burden by Xenogen imaging with neutrophil depletion (FIGS. 14C, 14D)",[1]; neutrophil depletion using Anti-Ly6G/GR1,the same result was seen
same,"tumor burden in the lungs, histology and excised lungs (FIG. 13)",[1]; [5],the least tumor burden
same,visible melanotic lung nodules (FIG. 13),[1]; [5],least frequently
same,"tumor burden by Xenogen imaging (FIGS. 14A, 14B)",[1]; without neutrophil depletion,progressively less tumor burden
same,metastatic burden in mouse liver by bioluminescence (FIG. 16),"[2]; IV delivery 5 mins before cells, 3 weeks post injection",reduction in bioluminescence
same,number of metastatic lesions in mouse lung (FIG. 15),"[2]; IV delivery 5 mins before cells, 3 weeks, histological sections",reduction in metastatic lesions
same,metastatic spread of osteosarcoma cell line,"[2]; mouse, in vivo",blocks the metastatic spread of an osteosarcoma cell line to the liver
same,neutrophil adhesion in sinusoids / neutrophil recruitment to the liver (FIG. 17A),[3],reduced neutrophil recruitment to the liver
same,"FIG. 12 result, printed as number of neutrophils present in liver sinusoid tissue",[4],significantly reduced the number of neutrophils present in liver sinusoid tissue
